Values of other authors in paper PMC2700308 (Biochemistry, 2009).

System: a protein
Settings: calorimetric; ref [33]

SMILES: O=S(=O)(O)O [sulfate]
- ΔH of binding of sulfate to a protein: 4.3 kcal/mol
